In patent US20180298024A1, “CORTISTATIN ANALOGS AND USES THEREOF” (President and Fellows of Harvard College, priority 2015, published 2018):

What was measured:
CDK8/Cyclin C = target: T1, CDK8/Cyclin C (Homo sapiens, UniProt P49336); experiment: 33PanQinase radiometric kinase assay, CDK8/Cyclin C; format: biochemical; conditions: read-out: percent inhibition of CDK8/Cyclin C
T1 construct: purchased ProQinase; host or cells: Sf9 insect cells or E. coli
Description: A radiometric protein kinase assay (33PanQinase Activity Assay) was used for measuring the kinase activity of the 320 protein kinases. All kinase assays were performed in 96-well FlashPlates™ from Perkin Elmer (Boston, Mass., USA) in a 50 μl reaction volume. The reaction cocktail was pipetted in 4 steps in the following order: • 1. 10 μl of non-radioactive ATP solution (in H2O) • 2. 25 μl of assay buffer/[γ-33P]-ATP mixture • 3. 5 μl of test sample in 10% DMSO • 4. 10 μl of enzyme/substrate mixture
All PKC assays (except the PKC-mu and the PKC-nu assay) additionally contained 1 mM CaCl2, 4 mM EDTA, 5 μg/ml phosphatidylserine and 1 μg/ml 1,2-dioleyl-glycerol.
The CAMKID, CAMK2A, CAMK2B, CAMK2D, CAMK4, CAMKK1, CAMKK2, DAPK2, EEF2K, MYLK, MYLK2 and MYLK3 assays additionally contained 1 μg/ml Calmodulin and 0.5 mM CaCl2). The PRKG1 and PRKG2 assays additionally contained 1 μM cGMP. The DNA-PK assay additionally contained 2.5 μg/ml DNA. The protein kinase reaction cocktails were incubated at 30° C. for 60 minutes. The reaction was stopped with 50 μl of 2% (v/v) H3PO4, plates were aspirated and washed two times with 200 μl 0.9% (w/v) NaCl. Incorporation of 33Pi (counting of “cpm”) was determined with a microplate scintillation counter (Microbeta, Wallac). All protein kinase assays were performed with a BeckmanCoulter Biomek 2000/SL robotic system.
All protein kinases provided by ProQinase were expressed in Sf9 insect cells or in E. coli as recombinant GST-fusion proteins or His-tagged proteins, either as full-length or enzymatically active fragments. All kinases were produced from human cDNAs and purified by either GSHaffinity chromatography or immobilized metal. Affinity tags were removed from a number of kinases during purification. The purity of the protein kinases was examined by SDSPAGE/Coomassie staining, the identity was checked by mass spectroscopy.
For each kinase, the median value of the cpm of three wells was defined as “low control” (n=3). This value reflects unspecific binding of radioactivity to the plate in the absence of a protein kinase but in the presence of the substrate. Additionally, for each kinase the median value of the cpm of three other wells was taken as the “high control”, i.e. full activity in the absence of any inhibitor (n=3). The difference between high and low control of each enzyme was taken as 100% activity. As part of the data evaluation the low control of each kinase was subtracted from the high control value as well as from their corresponding “compounds values”. The residual activity (in %) for each compounds well was calculated by using the following formula:
Res. Activity (%)=100×[(signal of compounds−low control)/(high control−low control)]

CDK8 [1] = target: T2, CDK8 (Homo sapiens, UniProt P49336); experiment: CDK8 Kd and residence time; format: binding
CDK8 [2] = target: T2, CDK8; experiment: Western blot study of CDK8 inhibition; format: cell-based; conditions: decreased staining results from inhibition of the target
Description: CDK8 inhibition in cells as measured by inhibition of Interferon-gamma (IFNγ)-stimulated STAT1-S727 phosphorylation. The compounds were provided as 200 μl of 1×10^−03 M/100% stock solutions in vials. The vials arrived in good condition and 2×100 μl each of the stock solutions were transferred into wells A2 to H2 of a 96 well “master plate” (barcoded “11273-UNH-01”), according to Table 12.
The dose response curves presented above were corroborated with western blot studies.

SKNO-1 = experiment: Half-maximal growth inhibition (GI50), SKNO-1; format: cell-based; conditions: Homo sapiens, 240 h, AML, M2, RUNX1-RUNX1T1, read-out: GI50 (nM), day 10
Description: (§1) Compounds A, B, C, D, and F were tested against various cell lines to probe their broad utility against cancer. Cortistatin A (CA) was also tested against the cell lines in a head to head fashion.

MV4; 11 = experiment: Half-maximal growth inhibition (GI50), MV4; 11; format: cell-based; conditions: Homo sapiens, 240 h, AML, M5, MLL-AF4, read-out: GI50 (nM), day 10
Description: as §1

MOLM-14 = experiment: Half-maximal growth inhibition (GI50), MOLM-14; format: cell-based; conditions: Homo sapiens, 240 h, AML, M5, MLL-AF9, read-out: GI50 (nM), day 10
Description: as §1

[3] = test system: Human AML cell line MV4;11; experiment: MV4;11 disseminated leukemia model (bioluminescence); format: in vivo, NSG mice; conditions: for Fold increase in leukemia burden 15 days after 1st dose / in vivo anti-leukemic efficacy (bioluminescence, words): NSG mice; for in vivo anti-leukemic efficacy (bioluminescence, words): compounds dosed at their highest tolerable dose; for Efficacy Rank Day 15: each compound at its own dose/schedule, data from 3 separate studies
Description: The in vivo anti-leukemic activity of Compounds A, B, C, D, and F was tested at the indicated doses and treatment schedules. The doses were chosen based on the compounds tolerability profile (i.e. CA was dosed at 0.16 mg/kg because higher doses caused weight loss or other tolerability issues outlined in Example 6). Human AML cell line MV4;11 expressing mCherry and luciferase were injected into NSG mice. Upon measurement of leukemia cell engraftment, treatment was initiated. Body weight and bioluminescence were measured. It has previously been shown (Shair, Nature 2015) that bioluminescence corresponds to leukemia burden. […] Moreover there was no appreciable advantage between IV or PO dosing observed.

hERG = hERG (Homo sapiens, UniProt Q12809); experiment: Panlab hERG assay; format: binding; set-up: Eurofins Panlabs
Description: Compounds A, B, C, and D were tested in Panlab assays to evaluate potential off-target activity using standard assay kits. Methods employed in these studies have been adapted from the scientific literature to maximize reliability and reproducibility. Reference standards were run as an integral part of each assay to ensure the validity of the results obtained.
Compound B was tested in a subset of 30 Panlab assays that included the hits from screening Compound F in addition to the Panlab hERG and sodium channel assay. This allows direct comparison of Compound B to Compound F in terms of off-target profile.

[4] = Pharmacokinetic profile in mice (plasma, LC-MS/MS); conditions: for Vd / clearance / AUC(0-inf) / Cmax / Tmax / bioavailability / concentration at 24 h: CD-1, mouse, plasma; for ½ life: CD-1 mice
Description: Formulation correction for salt content was not required for this study. Materials were vortexed and sonicated at room temperature following addition of vehicle. The solutions were maintained at ambient temperature stirring in the dark for at least 30 minutes prior to dose administration. The formulations were then vortexed and sonicated briefly to help ensure solubility.
Mice were selected from the Testing Facility's rodent colony. The animals were enrolled in the study based on acceptable health as determined by Testing Facility personnel on the day of test article administration. Animals were held in environmental acclimation for at least 48 hours (±6 hours) prior to dosing. Animals were maintained at temperatures between 16-26° C. (62-78° F.) with the humidity range between 30-70%. Animals in all groups were fasted overnight and food was returned 4 hours following dosing. Water was provided ad libitum throughout the study.
Whole blood samples for plasma were either collected from each animal by either direct vein puncture of the submandibular vein (survival blood collection) or by cardiac puncture following euthanasia with CO2 (terminal blood collection). […] Following collection, whole blood was placed into a tube containing K2EDTA and immediately placed on wet ice until processed for plasma. Whole blood samples were centrifuged at 2200×g for 10 minutes in a refrigerated centrifuge (5±3° C.) to isolate plasma. The samples were transferred to individual polypropylene containers and immediately placed on dry ice before storage at −70±10° C. until analysis. Plasma collected from undosed spare animals was pooled and analyzed as well.
Once collected the mouse plasma studies were quantitated using LCMS/MS spectroscopy to determine the concentration of compound. […] Eight calibration standards containing the analyte and internal standard imipramine were prepared and analyzed at the beginning and at the end of the sequence. A calibration curve was generated and sample concentrations calculated using the Quantitation software MassHunter.

Sequence of hERG (Q12809 whole entry): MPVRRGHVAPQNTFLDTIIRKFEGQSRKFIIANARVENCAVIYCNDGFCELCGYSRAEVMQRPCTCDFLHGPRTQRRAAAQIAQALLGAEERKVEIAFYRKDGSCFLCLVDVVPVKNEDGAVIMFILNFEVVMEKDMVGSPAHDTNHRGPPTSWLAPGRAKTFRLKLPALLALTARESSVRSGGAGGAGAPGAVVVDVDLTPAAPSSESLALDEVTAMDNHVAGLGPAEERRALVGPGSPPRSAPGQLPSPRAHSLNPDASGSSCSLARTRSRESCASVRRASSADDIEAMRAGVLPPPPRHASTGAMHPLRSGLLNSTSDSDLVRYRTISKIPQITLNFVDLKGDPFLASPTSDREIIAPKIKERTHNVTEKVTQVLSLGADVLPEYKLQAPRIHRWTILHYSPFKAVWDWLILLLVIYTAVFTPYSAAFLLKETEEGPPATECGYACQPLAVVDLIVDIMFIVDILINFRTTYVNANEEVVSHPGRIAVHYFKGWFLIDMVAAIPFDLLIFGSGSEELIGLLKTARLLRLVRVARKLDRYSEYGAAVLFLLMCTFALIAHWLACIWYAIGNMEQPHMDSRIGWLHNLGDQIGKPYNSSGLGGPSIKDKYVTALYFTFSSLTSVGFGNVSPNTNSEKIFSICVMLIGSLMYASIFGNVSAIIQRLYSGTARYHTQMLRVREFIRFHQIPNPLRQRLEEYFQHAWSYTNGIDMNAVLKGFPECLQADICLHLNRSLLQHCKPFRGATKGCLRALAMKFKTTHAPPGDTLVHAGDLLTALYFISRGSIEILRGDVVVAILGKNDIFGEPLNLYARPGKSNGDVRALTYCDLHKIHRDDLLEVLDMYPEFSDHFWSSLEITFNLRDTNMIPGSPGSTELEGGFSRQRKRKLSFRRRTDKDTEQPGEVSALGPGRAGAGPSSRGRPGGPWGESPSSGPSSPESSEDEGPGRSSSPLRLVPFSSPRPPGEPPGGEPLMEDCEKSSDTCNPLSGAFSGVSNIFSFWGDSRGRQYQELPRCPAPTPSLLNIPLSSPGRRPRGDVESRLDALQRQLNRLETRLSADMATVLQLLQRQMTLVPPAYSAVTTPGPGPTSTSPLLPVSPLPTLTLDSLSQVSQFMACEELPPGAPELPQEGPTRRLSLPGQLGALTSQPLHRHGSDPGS
T1 sequence (P49336 whole entry): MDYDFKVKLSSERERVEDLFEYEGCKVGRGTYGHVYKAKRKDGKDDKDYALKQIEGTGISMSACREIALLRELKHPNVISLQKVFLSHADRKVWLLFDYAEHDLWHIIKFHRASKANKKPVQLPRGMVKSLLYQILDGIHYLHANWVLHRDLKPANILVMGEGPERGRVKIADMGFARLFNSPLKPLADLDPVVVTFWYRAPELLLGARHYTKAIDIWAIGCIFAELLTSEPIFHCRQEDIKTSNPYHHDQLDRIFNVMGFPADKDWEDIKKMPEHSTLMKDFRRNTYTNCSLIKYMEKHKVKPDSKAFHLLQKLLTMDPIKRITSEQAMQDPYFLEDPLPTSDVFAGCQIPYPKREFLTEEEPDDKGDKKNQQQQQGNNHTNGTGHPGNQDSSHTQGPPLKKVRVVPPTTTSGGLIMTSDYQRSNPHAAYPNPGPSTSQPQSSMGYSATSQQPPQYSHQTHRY
T1 sequence (P24863 whole entry partner): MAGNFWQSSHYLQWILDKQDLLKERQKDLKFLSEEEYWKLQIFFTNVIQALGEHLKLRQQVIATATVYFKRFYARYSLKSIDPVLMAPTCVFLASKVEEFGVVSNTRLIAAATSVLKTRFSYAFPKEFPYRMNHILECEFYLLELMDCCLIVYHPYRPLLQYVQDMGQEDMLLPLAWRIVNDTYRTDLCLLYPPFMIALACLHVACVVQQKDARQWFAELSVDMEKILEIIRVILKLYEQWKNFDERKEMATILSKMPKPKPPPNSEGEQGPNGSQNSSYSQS
T2 sequence (P49336 whole entry): as the sequence (P49336 whole entry) above
T2 sequence (P24863 whole entry partner): as the sequence (P24863 whole entry partner) above

| SMILES | inhibition at 1 µM (CDK8/Cyclin C) [%] | Kd (CDK8 [1]) [nM] | inhibition of CDK8 in Western blot (CDK8 [2]) | GI50 (SKNO-1) [nM] | GI50 (MV4; 11) [nM] | GI50 (MOLM-14) [nM] | in vivo anti-leukemic efficacy (bioluminescence, words) [3] | Efficacy Rank Day 15 [3] | inhibition at 10 µM (hERG) [%] | Vd ([4]; iv, 3 mg/kg) [L/kg] | clearance ([4]; iv, 3 mg/kg) [mL/min/kg] | AUC(0-inf) ([4]; po, 10 mg/kg) [ng·h/mL] | Cmax ([4]; po, 10 mg/kg) [nM] | Tmax ([4]; po, 10 mg/kg) [h] | bioavailability ([4]; po, 10 mg/kg) [%] | concentration at 24 h ([4]; po, 10 mg/kg) [nM] | ½ life ([4]; IV 3 mg/kg) [h] | ½ life ([4]; PO 10 mg/kg) [h] | also measured |
| --- | --- | --- | --- | --- | --- | --- | --- | --- | --- | --- | --- | --- | --- | --- | --- | --- | --- | --- | --- |
| C[C@]12CC=C3C=C4CC[C@@H](N5CC[C@@H](N)C5)C[C@]45CC[C@]3(O5)[C@@H]1CC[C@@H]2c1ccc2ccncc2c1 [Compound B] | > 50 | 0.19 ± 0.05 | dose dependent response | 3 | 4 | 31 | superior in vivo efficacy as compared to Compound F | 3 | 34 | 26.6 | 31 | 1060 | 218 | 2 | 19.8 | 26.4 | 18.7 | 9.55 | Fold increase in leukemia burden 15 days after 1st dose ([3]; 10 mpk PO 7 on/2off/6on): 5.2 fold; AUC(0-inf) ([4]; male, po, 10 mg/kg): 1060 ng·h/mL |
| C[C@]12CC=C3C=C4CC[C@@H](N5C[C@H](O)[C@@H](O)C5)C[C@]45CC[C@]3(O5)[C@@H]1CC[C@@H]2c1ccc2ccncc2c1 [Compound D] | > 50 | 0.2 ± 0.02 | dose dependent response | < 1 | 1.5 | 6 | superior in vivo efficacy as compared to Compound F | 1 | 20 | 5.41 | 18 | 1390 | 377 | 2 | 15 | 7.6 | 6.60 | 4.25 | Fold increase in leukemia burden 15 days after 1st dose ([3]; 3 mpk IV 7on/2off/4on then IP 2on): 1.1 fold; AUC(0-inf) ([4]; male, iv, 3 mg/kg): 2780 ng·h/mL |
| C[C@]12CC=C3C=C4CC[C@@H](O)C[C@]45CC[C@]3(O5)[C@@H]1CC[C@@H]2c1ccc2ccncc2c1 [Compound A, (3S,3aR,9R,10aR,12aS,12bR)-3-(isoquinolin-7-yl)-3a-methyl-1,2,3,3a,4,7,8,9,10,11,12,12b-dodecahydro-10a,12a-epoxybenzo[4,5]cyclohepta[1,2-e]inden-9-ol] | > 50 | 0.23 ± 0.02 | dose dependent response | 2 | 1.5 | 6 | similarly efficacious to Compound F | 5 | – | 1.12 | 18.4 | 3970 | 3870 | 0.5 | 43.9 | 1.8 | 4.08 | 3.04 | residence time (CDK8 [1]): 447 min; Fold increase in leukemia burden 15 days after 1st dose ([3]; 20 mpk PO Q5Dx2): 10.4 fold; AUC(0-inf) ([4]; male, po, 20 mg/kg): 7940 ng·h/mL |
| C[C@]12CC=C3C=C4CC[C@@H](N5CC(N)C5)C[C@]45CC[C@]3(O5)[C@@H]1CC[C@@H]2c1ccc2ccncc2c1 [Compound C] | > 50 | 0.22 ± 0.03 | dose dependent response | 3 | 2 | 21 | superior in vivo efficacy as compared to Compound F | 2 | 49 | 26.4 | 23.7 | 2970 | 462 | 8 | 42.3 | 82.5 | 14.7 | 6.68 | Fold increase in leukemia burden 15 days after 1st dose ([3]; 5 mpk PO 7on/4off/4on): 2.2 fold; AUC(0-inf) ([4]; male, po, 5 mg/kg): 1480 ng·h/mL |
